By IC50 is commonly meant the concentration that inhibits the measured activity by half. Lower therefore signals higher potency. As a reminder, the solubility is how much of the substance goes into solution per volume. A lower solubility goes with a poorly soluble substance.

Data set [1] concerns the target human histamine 4 receptor (hH4R) (Homo sapiens (Human), UniProt Q9H3N8). Briefly: Binding affinity of human histamine 4 receptor (hH4R), [3H] labeled histamine displacement. To be noted: hH4R-overexpressed cell membrane, [3H] histamine. Here is the method:
20 μL of the prepared compound solution was transferred to each well of a 96-well plate, and then 20 μL of 100 μM histamine diluted with analysis buffer solution and 1% DMSO were transferred to each well to calculate non-specific binding and total binding degree. 25 μg of human histamine 4 receptor-overexpressed cell membrane (PerkinElmer) was diluted into 160 μL of analysis buffer solution and that was transferred to each well. [^3H] labeled histamine (PerkinElmer) was diluted into 1 μM concentration, 20 μL was allocated in each well, and then it was kept in a 27° C. incubator for 30 minutes. After the reaction, 200 μL of the mixture was transferred to a glass fiber plate in which 0.5% polyethylene amine was presoaked, and then non-binding [^3H] labeled histamine was removed in vacuum. After 4 times washing with 200 μL of washing buffer solution (50 mM tris-HCl, pH 7.4), the plate was dried in a 37° C. oven for 18 hours. 100 μL of betascint cocktail solution was added to each well, and after 1 hour CPM (count per minute) value of [^3H] labeled histamine was measured by using Wallac beta-counter TriLux.

Data set [2] is described as follows: Solubility in artificial gastrointestinal tract solution. In kind it is physicochemical. To be noted: thermodynamic from solid; for solubility at 1 h: fassgf or other biorelevant, first solution pH 1.2, 2 mg/mL sample, 37° C. 1 hour; for solubility at 2 h: fassif, second solution pH 6.5, 2 mg/mL sample, 37° C. 2 hours. Here is the method:
2.0 g of sodium chloride was added in 7.0 mL of 37% of hydrochloric acid and water to make the total volume of 1 L. The pH was adjusted to exactly 1.2 with 1N sodium hydroxide or 1N hydrochloric acid. A small amount (20 mL) of this solution was taken and added in 25 μL of triton X-100 to make the total volume of 25 mL.
0.348 g sodium hydroxide, 3.438 g NaH2PO4, 6.186 g sodium chloride and water were added to make the total volume of 1 L. The pH was adjusted to exactly 6.5 with 1N sodium hydroxide or 1N hydrochloric acid. A small amount (20 mL) of this solution was taken and 41.25 mg of sodium taurocholate hydrate and 25 μL of 750 mM lecithin dissolved in ethanol was added to make the total volume of 25 mL.
The heated test sample solutions were filtered to remove undissolved compounds therein. Finally, 100 μL of the completely compound-dissolved solution was sampled and 100 μL of CH3CN was added thereto to make the test sample solution. For each analysis of the test sample solution, the solubility was measured by using liquid chromatography.

Data set [3] can be described thus: Metabolic stability in human microsome. The conditions noted are these: human microsome 1 mg/mL, 5 μM compound, 1 mM NADPH.
The nature of data set [4]: Metabolic stability in mouse microsome. The conditions noted are these: mouse microsome 1 mg/mL, 5 μM compound, 1 mM NADPH.
For data set [5], the target named is human histamine 3 receptor (hH3R) (Homo sapiens (Human), UniProt Q9Y5N1). Briefly: Binding affinity of human histamine 3 receptor (hH3R), [3H] labeled N-α-methylhistamine displacement. The conditions noted are these: hH3R-overexpressed cell membrane, [3H] N-α-methylhistamine. The essentials: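 Membranes from cells overexpressing hH3R (15 μg) were incubated with compound and [3H]N-α-methylhistamine (20 μM stock) in 50 mM Tris-HCl pH 7.4, 5 mM MgCl2 for 30 min at 27 °C. Bound radioligand was counted by scintillation after filtration; 200 μM (R)(−)-α-methylhistamine stock defined non-specific binding; IC50 derived.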
Sequence of human histamine 3 receptor (hH3R) (Q9Y5N1 whole entry): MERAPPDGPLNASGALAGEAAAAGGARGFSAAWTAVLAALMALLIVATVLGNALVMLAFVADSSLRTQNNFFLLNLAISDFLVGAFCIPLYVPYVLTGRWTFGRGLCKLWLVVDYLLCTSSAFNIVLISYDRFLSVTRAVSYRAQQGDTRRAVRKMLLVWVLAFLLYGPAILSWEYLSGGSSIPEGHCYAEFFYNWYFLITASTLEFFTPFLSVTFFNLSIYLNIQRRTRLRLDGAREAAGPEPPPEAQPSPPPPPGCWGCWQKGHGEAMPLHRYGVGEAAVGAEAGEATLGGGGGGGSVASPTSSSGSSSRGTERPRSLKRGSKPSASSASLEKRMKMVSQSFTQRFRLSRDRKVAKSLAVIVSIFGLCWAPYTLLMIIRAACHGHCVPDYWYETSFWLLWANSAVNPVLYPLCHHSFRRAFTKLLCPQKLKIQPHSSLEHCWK

Where [6] appears, read: artificial gastrointestinal tract solution.

Converted amounts (≈) assume the structure as drawn.

Sequence of human histamine 4 receptor (hH4R) (Q9H3N8 whole entry): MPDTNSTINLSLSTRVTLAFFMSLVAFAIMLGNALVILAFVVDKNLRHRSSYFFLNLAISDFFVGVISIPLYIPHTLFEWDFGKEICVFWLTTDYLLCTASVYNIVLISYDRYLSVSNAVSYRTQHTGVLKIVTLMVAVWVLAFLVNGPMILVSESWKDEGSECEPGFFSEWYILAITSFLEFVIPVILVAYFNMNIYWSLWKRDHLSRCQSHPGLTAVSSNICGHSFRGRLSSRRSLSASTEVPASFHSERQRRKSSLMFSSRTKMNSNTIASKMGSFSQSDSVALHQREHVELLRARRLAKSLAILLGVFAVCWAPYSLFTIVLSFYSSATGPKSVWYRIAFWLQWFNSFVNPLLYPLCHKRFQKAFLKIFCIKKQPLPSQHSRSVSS

`CN1CCN(c2nc3ncc(Br)cc3n3cnnc23)CC1` [Compound 12, 8-Bromo-4-(4-methylpiperazin-1-yl)pyrido[2,3-e][1,2,4]triazolo[4,3-a]pyrazine] registered an IC50 in data set [1] of 67 nM. In data set [2] (setting [6]), this compound yielded a solubility at 1 h of 1930 µg/mL (≈ 5.54 mM) and a solubility at 2 h of 679 µg/mL (≈ 1.95 mM). The “Metabolic stability (CLh. int), Human” value in data set [3] is 3.73 mL/min/mg. Also, in data set [4], the “Metabolic stability (CLh. int), Mouse” value worked out at 14.42 mL/min/mg.

On to `C[C@H]1CN(c2nc3ncc(Cl)cc3n3cnnc23)CCN1` [Compound 19, (S)-8-chloro-4-(3-methylpiperazin-1-yl)pyrido[2,3-e][1,2,4]triazolo[4,3-a]pyrazine], for which the concentration for half-maximal inhibition (IC50) was more than 100 µM in data set [5] and 760 nM in data set [1]. The compound also came in with a solubility at 1 h in data set [2] (setting [6]) of 1980 µg/mL (≈ 6.5 mM). In addition, the solubility at 2 h in data set [2] (setting [6]) stood at 1700 µg/mL (≈ 5.58 mM). Also, the “Metabolic stability (CLh. int), Human” value in data set [3] came out at 0.96 mL/min/mg. In addition, in data set [4], the “Metabolic stability (CLh. int), Mouse” value is on record as 26.16 mL/min/mg.

With `C[C@H]1CN(c2nc3ncc(Cl)cc3n3cnnc23)CCN1C` [Compound 20, (S)-8-chloro-4-(3,4-dimethylpiperazin-1-yl)pyrido[2,3-e][1,2,4]triazolo[4,3-a]pyrazine], the IC50 in data set [5] was more than 100 µM. For the same compound, in data set [1], the IC50 was 380 nM. In data set [2] (setting [6]), this compound came in with a solubility at 1 h of 2070 µg/mL (≈ 6.51 mM) and a solubility at 2 h of 1640 µg/mL (≈ 5.18 mM). Besides, the “Metabolic stability (CLh. int), Human” value in data set [3] worked out at 1.62 mL/min/mg. Also, the “Metabolic stability (CLh. int), Mouse” value in data set [4] was determined as 7.57 mL/min/mg.

In data set [5], `CNC1CN(c2nc3ncc(C)cc3n3cnnc23)C1` [Compound 50, N-Methyl-1-(8-methylpyrido[2,3-e][1,2,4]triazolo[4,3-a]pyrazin-4-yl)azetidin-3-amine] returned an IC50 of more than 100 µM. In data set [1], this compound displayed a half-inhibitory concentration (IC50) of 190 nM. Besides, in data set [2] (setting [6]), the concentration in solution (solubility at 1 h) came to 1990 µg/mL (≈ 7.38 mM) and the concentration in solution (solubility at 2 h) was 1870 µg/mL (≈ 6.95 mM). The “Metabolic stability (CLh. int), Human” value in data set [3] is on record as 1.90 mL/min/mg. The “Metabolic stability (CLh. int), Mouse” value in data set [4] worked out at 9.08 mL/min/mg.

In turn, `CNC1CN(c2nc3ncc(C(F)(F)F)cc3n3cnnc23)C1` [Compound 52, N-Methyl-1-(8-(trifluoromethyl)pyrido[2,3-e][1,2,4]triazolo[4,3-a]pyrazin-4-yl)azetidin-3-amine] came in with an IC50 in data set [5] of more than 100 µM. In data set [1], the IC50 was 220 nM. In data set [2], this compound gave a solubility at 1 h of 1670 µg/mL (≈ 5.18 mM) and a solubility at 2 h of 1460 µg/mL (≈ 4.53 mM). Besides, the “Metabolic stability (CLh. int), Human” value in data set [3] is listed as 1.32 mL/min/mg. Also, the “Metabolic stability (CLh. int), Mouse” value in data set [4] is 2.05 mL/min/mg.

With `Clc1cc2c(nc1Cl)nc(N1CCNCC1)c1nncn12` [Compound 62, 7,8-Dichloro-4-(piperazin-1-yl)pyrido[2,3-e][1,2,4]triazolo[4,3-a]pyrazine], the IC50 is more than 100 µM in data set [5] and 510 nM in data set [1]. Also, the “Metabolic stability (CLh. int), Human” value in data set [3] was 4.17 mL/min/mg. Further, the “Metabolic stability (CLh. int), Mouse” value in data set [4] is 7.98 mL/min/mg.

Turning to `CNC1CN(c2nc3ncc(Br)c(C)c3n3cnnc23)C1` [Compound 65, 1-(8-Bromo-9-methylpyrido[2,3-e][1,2,4]triazolo[4,3-a]pyrazin-4-yl)-N-methylazetidin-3-amine], the values for the IC50 in data set [5] and in data set [1] were more than 100 µM and 730 nM, respectively. In addition, the “Metabolic stability (CLh. int), Human” value in data set [3] is 3.21 mL/min/mg. In data set [4], the “Metabolic stability (CLh. int), Mouse” value is on record as 6.49 mL/min/mg.

`CNC1CN(c2nc3ncc(Br)cc3n3cnnc23)C1.Cl` [Compound 68, 1-(8-Bromopyrido[2,3-e][1,2,4]triazolo[4,3-a]pyrazin-4-yl)-N-methylazetidin-3-amine hydrochloride]: the IC50 in data set [5] is more than 100 µM. The compound further yielded an IC50 in data set [1] (hydrochloride) of 130 nM. For the same compound, in data set [2] (setting [6]), the solubility at 1 h was determined as 1820 µg/mL and the solubility at 2 h came out at 1760 µg/mL. Also, the “Metabolic stability (CLh. int), Human” value in data set [3] was 0.30 mL/min/mg. Further, in data set [4], the “Metabolic stability (CLh. int), Mouse” value is listed as 3.93 mL/min/mg.

For the compound `CNC1CN(c2nc3ncc(Br)cc3n3nnnc23)C1.Cl` [Compound 69, 1-(8-Bromopyrido[2,3-e]tetrazolo[1,5-a]pyrazin-4-yl)-N-methylazetidin-3-amine hydrochloride], the figures for the IC50 in data set [5] and in data set [1] were more than 100 µM and 35 nM, respectively. The compound also displayed a solubility at 1 h in data set [2] (setting [6]) of 1810 µg/mL. In data set [2] (setting [6]), this compound yielded a solubility at 2 h of 1920 µg/mL. Besides, the “Metabolic stability (CLh. int), Human” value in data set [3] is given as 5.69 mL/min/mg. In addition, the “Metabolic stability (CLh. int), Mouse” value in data set [4] was found to be 14.04 mL/min/mg.

Take `Clc1cnc2nc(N3C[C@@H]4C[C@H]3CN4)c3nncn3c2c1` [Compound 77, 4-((1S,4S)-2,5-diazabicyclo[2.2.1]heptan-2-yl)-8-chloropyrido[2,3-e][1,2,4]triazolo[4,3-a]pyrazine]: the IC50 was more than 100 µM in data set [5] and 490 nM in data set [1]. The “Metabolic stability (CLh. int), Human” value in data set [3] worked out at 1.33 mL/min/mg. For the same compound, the “Metabolic stability (CLh. int), Mouse” value in data set [4] is 0.32 mL/min/mg.

`CN1C[C@@H]2C[C@H]1CN2c1nc2ncc(Cl)cc2n2cnnc12` [Compound 78, 8-Chloro-4-((1S,4S)-5-methyl-2,5-diazabicyclo[2.2.1]heptan-2-yl)pyrido[2,3-e][1,2,4]triazolo[4,3-a]pyrazine]: the IC50 is more than 100 µM in data set [5] and 430 nM in data set [1]. Also, the “Metabolic stability (CLh. int), Human” value in data set [3] was 2.36 mL/min/mg. Also, the “Metabolic stability (CLh. int), Mouse” value in data set [4] stood at 1.46 mL/min/mg.

In the case of `CNC1CN(c2nc3ncc(Cl)cc3n3ccnc23)C1` [Compound 88, 1-(8-Chloroimidazo[1,2-a]pyrido[2,3-e]pyrazin-4-yl)-N-methylazetidin-3-amine], in data set [5], the IC50 is more than 100 µM. Also, the IC50 in data set [1] came to 260 nM. In data set [2] (setting [6]), this compound gave a solubility at 1 h of 1820 µg/mL (≈ 6.31 mM) and a solubility at 2 h of 1580 µg/mL (≈ 5.46 mM). In data set [3], the “Metabolic stability (CLh. int), Human” value was determined as 2.87 mL/min/mg. Moreover, in data set [4], the “Metabolic stability (CLh. int), Mouse” value is on record as 11.77 mL/min/mg.

`CNC1CN(c2nc3ncc(Br)cc3n3ccnc23)C1` [Compound 89, 1-(8-Bromoimidazo[1,2-a]pyrido[2,3-e]pyrazin-4-yl)-N-methylazetidin-3-amine]: the IC50 in data set [5] is more than 100 µM; in data set [1], 360 nM. Also, the “Metabolic stability (CLh. int), Human” value in data set [3] came to 3.19 mL/min/mg. Further, the “Metabolic stability (CLh. int), Mouse” value in data set [4] is 10.71 mL/min/mg.

Compound `CNC1CN(C2=Nc3ncc(Br)cc3N3CCN=C23)C1` [Compound 107, 1-(8-bromo-1,2-dihydroimidazo[1,2-a]pyrido[2,3-e]pyrazin-4-yl)-N-methylazetidin-3-amine] returned an IC50 in data set [5] of more than 100 µM. In data set [1], this compound registered an IC50 of 620 nM. In data set [2] (setting [6]), this compound had a solubility at 1 h of 1420 µg/mL (≈ 4.22 mM) and a solubility at 2 h of 1570 µg/mL (≈ 4.68 mM). Moreover, in data set [3], the “Metabolic stability (CLh. int), Human” value is reported as 5.16 mL/min/mg. In addition, the “Metabolic stability (CLh. int), Mouse” value in data set [4] came out at 8.15 mL/min/mg.

Regarding `CNC1CN(c2nc3ncc(Br)cc3c3ccnn23)C1` [Compound 110, 1-(9-bromopyrazolo[1,5-c]pyrido[3,2-e]pyrimidin-5-yl)-N-methylazetidin-3-amine], the IC50 in data set [5] was more than 100 µM. Also, the half-inhibitory concentration (IC50) in data set [1] worked out at 160 nM. In data set [2] (setting [6]), this compound came in with a solubility at 1 h of 1870 µg/mL (≈ 5.62 mM) and a solubility at 2 h of 708 µg/mL (≈ 2.13 mM). Moreover, the “Metabolic stability (CLh. int), Human” value in data set [3] is recorded as 3.88 mL/min/mg. In addition, in data set [4], the “Metabolic stability (CLh. int), Mouse” value is given as 1.78 mL/min/mg.

For `CNC1CN(c2nc3ncc([N+](=O)[O-])cc3n3cnnc23)C1` [Compound 111, N-methyl-1-(8-nitropyrido[2,3-e][1,2,4]triazolo[4,3-a]pyrazin-4-yl)azetidin-3-amine], the IC50 in data set [5] is more than 100 µM. For the same compound, the IC50 in data set [1] is 240 nM. Besides, in data set [2] (setting [6]), the solubility at 1 h worked out at 1900 µg/mL (≈ 6.33 mM) and the solubility at 2 h was 1070 µg/mL (≈ 3.55 mM). The “Metabolic stability (CLh. int), Human” value in data set [3] is given as 4.20 mL/min/mg. The “Metabolic stability (CLh. int), Mouse” value in data set [4] is recorded as 5.23 mL/min/mg.

(Values after patent publication US9586959B2, “Substituted tricyclic heterocycles as histamine 4 receptor inhibitors” (C&C RESEARCH LABORATORIES, priority 2011, dated 2017).)
